Test results from ChEMBL document CHEMBL1201862, “PubChem BioAssay data set” (2004).
Activity calls are given as the source filed them.

Tests used:
Mucolipin-3 = Mucolipin-3 (Homo sapiens, UniProt Q8TDD5); assay: Dose response cell-based high-throughput screening assay for agonists of the transient receptor potential channel ML3 (TRPML3). [Related pubchem assays: 1526, 1424, 1448 ]; assay type: functional
Ion channel NompC = Ion channel NompC (Danio rerio, UniProt Q7T1G6); assay: Fluorescence counterscreen assay for TRPML3 agonists: dose response cell-based high-throughput screening assay to identify agonists of the transient receptor potential channel N1 (TRPN1). [Related pubchem assays: 1526, 1424, 1448 ]; assay type: functional
[1] = target: Mothers against decapentaplegic homolog 3 (Homo sapiens, UniProt P84022); assay: SMAD3 transcription factor inhibitors, dose response (AID 715); assay type: functional
Cytochrome P450 2C19 = Cytochrome P450 2C19 (Homo sapiens, UniProt P33261); assay: Cytochrome panel assay with activity outcomes. Panel member name: p450-cyp2c19 Compounds with AC50 equal or less than 10 uM are considered active; assay type: functional
Cytochrome P450 2D6 = Cytochrome P450 2D6 (Homo sapiens, UniProt P10635);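 further: CYP2D6 member of a cytochrome P450 panel assay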
[2] = inhibitors of intracellular T. cruzi replication, confirmation, NIH3T3 host cells, beta-gal luminescence (AID 2044); assay type: functional, cell-based;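 further: intracellular parasites grown in NIH/3T3 mouse fibroblasts as host cells; luminescent beta-galactosidase reporter signal from transgenic T. cruzi replicating inside host cells; inhibitors lower the luminescence signal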
[3] = cytotoxicity toward NIH3T3 fibroblasts, dose response, counter-screen, cell-based, ATP luminescence, mouse fibroblasts (AID 2010); assay type: functional;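 further: cells exposed to compound for about 90 hours before reading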
[4] = Vero cell cytotoxicity, dose response, cytotoxicity control for Vif-APOBEC3G degradation inhibitor project, Vero cells (AID 1117358); assay type: functional; conditions: Human immunodeficiency virus 1, Vero
NADPH oxidase 1 = NADPH oxidase 1 (Homo sapiens, UniProt Q9Y5S8); assay type: functional, cell-based;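 further: Cell-based assay with luminescence read-out, IC50 derived from inhibitor dose-response curves; intracellular ROS from endogenous NOX1 in intact HT29 colon cancer cells; potency of inhibitors that lower the ROS luminescence signal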
[5] = growth suppression of PTEN-null colon cells, dose response, cell-based, HCT116 PTEN knockout (AID 1047); assay type: functional;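 further: HCT116 colon tumor cells with PTEN knocked out; cells exposed to compound for 60 hours before readout; potency for loss of cell viability measured by luminescence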
[6] = growth suppression of beta-catenin-knockout colon cells, dose response, cell-based, HCT116, human colon tumor (AID 1045); assay type: functional;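 further: HCT116 colon tumor cells with beta catenin knocked out; cells exposed to compound for 60 hours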
Estrogen receptor = target: T1, Estrogen receptor (Homo sapiens, UniProt P03372); assay: potentiators of ERα–SRC-1 coactivator binding, dose response, biochemical, TR-FRET, ERα LBD (AID 737)
T1 sequence (P03372 whole entry): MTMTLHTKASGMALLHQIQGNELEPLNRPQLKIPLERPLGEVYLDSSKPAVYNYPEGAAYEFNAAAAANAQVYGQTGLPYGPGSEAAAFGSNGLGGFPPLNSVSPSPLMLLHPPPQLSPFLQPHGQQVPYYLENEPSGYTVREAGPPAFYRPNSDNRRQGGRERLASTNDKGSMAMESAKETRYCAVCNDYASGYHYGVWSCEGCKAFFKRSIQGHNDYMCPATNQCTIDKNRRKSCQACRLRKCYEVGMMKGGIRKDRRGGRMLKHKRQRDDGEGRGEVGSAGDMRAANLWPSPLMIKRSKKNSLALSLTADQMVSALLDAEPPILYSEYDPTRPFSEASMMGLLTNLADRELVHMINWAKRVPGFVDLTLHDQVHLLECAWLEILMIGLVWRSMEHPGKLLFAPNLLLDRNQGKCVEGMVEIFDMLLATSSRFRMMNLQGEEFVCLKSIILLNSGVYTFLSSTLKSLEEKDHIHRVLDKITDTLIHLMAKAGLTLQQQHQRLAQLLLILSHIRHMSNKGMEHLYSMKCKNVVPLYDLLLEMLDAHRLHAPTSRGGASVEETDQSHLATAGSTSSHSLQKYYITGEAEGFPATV

Large T antigen = Large T antigen (Simian virus 40, UniProt P03070); assay type: functional, Betapolyomavirus macacae;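 further: Confirmatory-stage PubChem screen for compounds that inhibit SV40 T antigen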
[7] = target: Bifunctional protein GlmU (Mycobacterium tuberculosis, UniProt P9WMN3); assay: Inhibitors of Mycobacterial Glucosamine-1-phosphate acetyl transferase (GlmU). Secondary screen.; set-up: species or system Mycobacterium tuberculosis H37Rv
Nonstructural protein 1 = Nonstructural protein 1 (Influenza A virus, UniProt Q194T2); assay type: functional, Influenza A virus (A/California/07/2009(H1N1))
Protein S100-A4 = Protein S100-A4 (Homo sapiens, UniProt P26447); assay: S100A4-myosin IIA binding inhibitor potency, dose response, biochemical, fluorescence polarization, cherry-picked hits (AID 687001); assay type: functional
Vero = assay: host cell cytotoxicity of antiviral hits, dose response, cytotoxicity control for West Nile virus antiviral project, secondary assay (AID 1650); assay type: functional; conditions: Chlorocebus sabaeus
[8] = A High Throughput Confirmatory Assay used to Identify Novel Compounds that Inhibit Mycobacterium Tuberculosis in the absence of Glycerol.; assay type: functional
[9] = microbe, parasite or virus in culture; assay type: functional; conditions: Mycobacterium tuberculosis
Cytochrome P450 3A4 = Cytochrome P450 3A4 (Homo sapiens, UniProt P08684);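 further: CYP3A4 tested as one member of a cytochrome P450 panel screen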
[10] = target: Ubiquitin carboxyl-terminal hydrolase BAP1 (Homo sapiens, UniProt Q92560); assay: BAP1 deubiquitinase inhibitors, dose response, biochemical (AID 714); assay type: functional
Caspase-6 = Caspase-6 (Homo sapiens, UniProt P55212); assay: human caspase-6 inhibitors, dose response, biochemical, VEID-R110 fluorescence, cherry-pick (AID 720632)
[11] = inhibitors of Vif binding to APOBEC3G peptide, primary screen, biochemical, TR-FRET, GST-Vif 1-94, biotin-A3G peptide, dose response retest (AID 1117319); assay type: functional;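 further: TR-FRET signal of purified GST-Vif binding a biotinylated A3G peptide; inhibitors lower the FRET signal by blocking Vif and A3G binding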

Chain of Cytochrome P450 2D6 (P10635 whole entry): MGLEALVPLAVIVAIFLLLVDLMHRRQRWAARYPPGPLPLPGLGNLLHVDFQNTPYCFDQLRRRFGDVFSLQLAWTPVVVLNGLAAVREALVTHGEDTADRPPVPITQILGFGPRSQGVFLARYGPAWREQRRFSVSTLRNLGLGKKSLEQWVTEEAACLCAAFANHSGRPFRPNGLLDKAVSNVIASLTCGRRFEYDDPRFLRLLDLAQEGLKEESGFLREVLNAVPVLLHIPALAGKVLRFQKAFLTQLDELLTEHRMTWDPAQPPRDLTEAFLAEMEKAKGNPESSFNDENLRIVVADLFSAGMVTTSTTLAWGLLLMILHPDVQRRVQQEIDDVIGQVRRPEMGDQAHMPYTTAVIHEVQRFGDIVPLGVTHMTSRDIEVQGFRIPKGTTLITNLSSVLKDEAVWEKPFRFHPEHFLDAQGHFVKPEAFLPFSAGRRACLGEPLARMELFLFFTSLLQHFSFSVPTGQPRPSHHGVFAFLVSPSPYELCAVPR
Chain of NADPH oxidase 1 (Q9Y5S8 whole entry): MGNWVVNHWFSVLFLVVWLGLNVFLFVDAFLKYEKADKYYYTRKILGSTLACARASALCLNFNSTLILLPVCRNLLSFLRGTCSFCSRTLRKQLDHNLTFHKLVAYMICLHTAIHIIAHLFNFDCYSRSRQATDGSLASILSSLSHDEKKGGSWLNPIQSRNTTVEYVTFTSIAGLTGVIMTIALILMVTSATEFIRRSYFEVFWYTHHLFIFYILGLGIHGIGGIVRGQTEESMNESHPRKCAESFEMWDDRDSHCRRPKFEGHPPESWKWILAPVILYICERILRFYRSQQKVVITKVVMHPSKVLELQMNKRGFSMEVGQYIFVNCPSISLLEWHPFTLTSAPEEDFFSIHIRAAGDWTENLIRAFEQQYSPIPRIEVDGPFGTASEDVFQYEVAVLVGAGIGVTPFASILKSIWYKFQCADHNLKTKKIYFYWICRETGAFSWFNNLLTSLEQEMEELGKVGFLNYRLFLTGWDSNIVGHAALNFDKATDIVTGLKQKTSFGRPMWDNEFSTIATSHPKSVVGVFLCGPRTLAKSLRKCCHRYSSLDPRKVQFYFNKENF
Chain of Mothers against decapentaplegic homolog 3 (P84022 whole entry): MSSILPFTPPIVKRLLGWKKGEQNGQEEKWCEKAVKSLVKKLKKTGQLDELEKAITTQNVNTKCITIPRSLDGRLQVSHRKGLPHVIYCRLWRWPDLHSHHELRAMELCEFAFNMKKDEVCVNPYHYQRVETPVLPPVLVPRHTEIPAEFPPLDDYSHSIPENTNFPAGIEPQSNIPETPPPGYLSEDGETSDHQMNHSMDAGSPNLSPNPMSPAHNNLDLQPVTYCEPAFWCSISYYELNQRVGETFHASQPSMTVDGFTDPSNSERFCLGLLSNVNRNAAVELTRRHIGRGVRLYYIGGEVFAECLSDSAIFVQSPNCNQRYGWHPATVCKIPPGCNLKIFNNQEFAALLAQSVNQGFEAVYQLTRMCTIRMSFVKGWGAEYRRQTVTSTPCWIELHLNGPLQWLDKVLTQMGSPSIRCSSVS
Chain of Mucolipin-3 (Q8TDD5 whole entry): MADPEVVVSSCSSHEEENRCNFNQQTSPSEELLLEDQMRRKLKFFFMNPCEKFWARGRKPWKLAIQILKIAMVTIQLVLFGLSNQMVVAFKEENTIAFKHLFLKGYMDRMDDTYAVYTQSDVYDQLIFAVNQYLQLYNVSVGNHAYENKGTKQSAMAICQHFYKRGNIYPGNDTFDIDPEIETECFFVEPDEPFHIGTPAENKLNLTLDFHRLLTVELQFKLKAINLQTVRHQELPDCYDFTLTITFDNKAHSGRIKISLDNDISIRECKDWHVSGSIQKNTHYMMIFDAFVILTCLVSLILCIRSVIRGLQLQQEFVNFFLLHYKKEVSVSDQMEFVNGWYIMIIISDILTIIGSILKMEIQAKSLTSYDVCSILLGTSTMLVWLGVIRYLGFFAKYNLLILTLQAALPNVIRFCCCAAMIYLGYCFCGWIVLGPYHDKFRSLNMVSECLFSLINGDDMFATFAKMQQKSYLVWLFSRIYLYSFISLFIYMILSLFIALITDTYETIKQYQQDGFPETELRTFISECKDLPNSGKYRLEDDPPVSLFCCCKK
Chain of Caspase-6 (P55212 24-179 limits assumed): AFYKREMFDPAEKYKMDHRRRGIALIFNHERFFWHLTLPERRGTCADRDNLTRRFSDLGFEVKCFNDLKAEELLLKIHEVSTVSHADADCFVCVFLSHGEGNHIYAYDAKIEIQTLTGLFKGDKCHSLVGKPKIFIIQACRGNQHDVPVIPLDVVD
Chain of Caspase-6 (P55212 194-293 limits assumed): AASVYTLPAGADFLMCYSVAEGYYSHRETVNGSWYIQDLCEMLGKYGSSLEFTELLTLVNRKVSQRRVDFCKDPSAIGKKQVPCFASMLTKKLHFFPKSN
Chain of Ion channel NompC (Q7T1G6 whole entry): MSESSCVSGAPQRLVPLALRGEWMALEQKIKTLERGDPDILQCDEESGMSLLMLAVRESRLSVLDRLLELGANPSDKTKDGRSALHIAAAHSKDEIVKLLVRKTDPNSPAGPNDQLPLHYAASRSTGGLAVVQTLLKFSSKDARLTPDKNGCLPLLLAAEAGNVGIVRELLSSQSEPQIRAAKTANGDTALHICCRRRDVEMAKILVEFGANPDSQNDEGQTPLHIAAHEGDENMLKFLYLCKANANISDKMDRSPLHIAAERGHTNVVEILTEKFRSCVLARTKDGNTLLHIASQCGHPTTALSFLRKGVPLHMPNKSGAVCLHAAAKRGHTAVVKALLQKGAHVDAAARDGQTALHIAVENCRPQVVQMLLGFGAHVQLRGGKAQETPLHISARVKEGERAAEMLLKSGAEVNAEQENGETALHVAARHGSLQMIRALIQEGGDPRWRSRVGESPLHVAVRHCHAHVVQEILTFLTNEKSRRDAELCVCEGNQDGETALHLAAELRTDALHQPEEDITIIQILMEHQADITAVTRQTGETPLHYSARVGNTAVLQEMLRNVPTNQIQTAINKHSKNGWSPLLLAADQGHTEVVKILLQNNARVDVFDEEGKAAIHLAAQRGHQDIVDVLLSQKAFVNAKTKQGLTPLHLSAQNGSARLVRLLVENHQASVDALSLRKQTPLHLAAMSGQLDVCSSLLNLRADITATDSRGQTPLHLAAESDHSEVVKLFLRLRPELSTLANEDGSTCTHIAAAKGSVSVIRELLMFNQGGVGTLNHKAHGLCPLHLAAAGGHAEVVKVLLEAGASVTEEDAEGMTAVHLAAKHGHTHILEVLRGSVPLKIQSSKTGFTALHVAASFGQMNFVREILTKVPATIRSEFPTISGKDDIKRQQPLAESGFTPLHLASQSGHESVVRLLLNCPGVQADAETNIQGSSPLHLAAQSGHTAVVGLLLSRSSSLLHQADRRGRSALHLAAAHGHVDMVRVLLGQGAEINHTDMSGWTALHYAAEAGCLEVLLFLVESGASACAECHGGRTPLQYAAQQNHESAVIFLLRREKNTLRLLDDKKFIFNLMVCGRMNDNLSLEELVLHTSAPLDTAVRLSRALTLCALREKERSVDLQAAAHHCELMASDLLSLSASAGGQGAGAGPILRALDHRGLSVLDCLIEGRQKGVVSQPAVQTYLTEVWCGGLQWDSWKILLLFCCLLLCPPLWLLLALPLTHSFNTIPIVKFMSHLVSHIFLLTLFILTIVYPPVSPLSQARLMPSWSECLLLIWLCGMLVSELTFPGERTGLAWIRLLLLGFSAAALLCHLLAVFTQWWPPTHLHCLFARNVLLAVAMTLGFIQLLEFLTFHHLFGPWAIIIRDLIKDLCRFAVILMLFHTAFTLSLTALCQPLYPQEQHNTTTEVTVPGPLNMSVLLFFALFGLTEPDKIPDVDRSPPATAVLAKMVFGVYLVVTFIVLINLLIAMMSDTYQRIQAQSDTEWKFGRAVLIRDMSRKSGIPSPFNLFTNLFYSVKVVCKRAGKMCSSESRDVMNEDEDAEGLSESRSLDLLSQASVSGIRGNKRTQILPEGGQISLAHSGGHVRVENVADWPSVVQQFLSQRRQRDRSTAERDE
Chain of Large T antigen (P03070 whole entry): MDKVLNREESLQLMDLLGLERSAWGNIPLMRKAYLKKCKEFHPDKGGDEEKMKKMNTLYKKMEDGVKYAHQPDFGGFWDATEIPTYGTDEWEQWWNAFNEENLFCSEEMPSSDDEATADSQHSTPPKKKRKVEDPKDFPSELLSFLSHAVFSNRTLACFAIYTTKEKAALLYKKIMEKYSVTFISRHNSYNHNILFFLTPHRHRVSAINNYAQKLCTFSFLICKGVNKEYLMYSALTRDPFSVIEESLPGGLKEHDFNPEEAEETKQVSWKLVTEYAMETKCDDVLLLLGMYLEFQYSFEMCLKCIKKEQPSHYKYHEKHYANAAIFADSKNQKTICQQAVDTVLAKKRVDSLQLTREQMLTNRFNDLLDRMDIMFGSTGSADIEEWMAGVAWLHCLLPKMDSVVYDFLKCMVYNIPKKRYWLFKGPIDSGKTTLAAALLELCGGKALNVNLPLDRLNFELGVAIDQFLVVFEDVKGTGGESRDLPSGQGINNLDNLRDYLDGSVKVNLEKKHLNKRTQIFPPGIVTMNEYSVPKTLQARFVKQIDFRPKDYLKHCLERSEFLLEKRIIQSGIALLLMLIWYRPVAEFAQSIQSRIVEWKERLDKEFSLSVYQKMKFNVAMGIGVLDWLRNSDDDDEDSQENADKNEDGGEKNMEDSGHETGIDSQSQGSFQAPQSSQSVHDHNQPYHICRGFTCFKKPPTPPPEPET
Chain of Protein S100-A4 (P26447 whole entry): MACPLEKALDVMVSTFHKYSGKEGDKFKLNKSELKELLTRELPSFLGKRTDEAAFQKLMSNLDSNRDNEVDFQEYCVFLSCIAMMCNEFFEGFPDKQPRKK
Chain of Nonstructural protein 1 (Q194T2 whole entry): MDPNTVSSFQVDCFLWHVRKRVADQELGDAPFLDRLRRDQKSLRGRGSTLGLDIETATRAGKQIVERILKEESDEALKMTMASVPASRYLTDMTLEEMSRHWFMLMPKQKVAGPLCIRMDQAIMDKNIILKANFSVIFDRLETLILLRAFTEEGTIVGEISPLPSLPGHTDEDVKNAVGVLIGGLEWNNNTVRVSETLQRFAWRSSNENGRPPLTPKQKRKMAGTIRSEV

Structure (SMILES): COc1ccc(Cl)cc1N(CC(=O)N1CCCCC1)S(C)(=O)=O
- EC50 (Mucolipin-3): 2.38 µM (active)
- EC50 (Ion channel NompC): > 29.9 µM (not active)

Structure (SMILES): O=C(NCCCN1CCCCCC1)C1CC(=O)N(CCc2ccccc2)C1 (centres undefined)
- IC50 [1]: 10.2 µM (active)
- AC50 (Cytochrome P450 2C19): inconclusive
- AC50 (Cytochrome P450 2D6): 25.1 µM (inconclusive)

Structure (SMILES): CCCCn1c(NCc2ccccc2NS(=O)(=O)c2ccc(C)cc2)nc2ccccc21
- EC50 [2]: 2.21 µM (active)
- EC50 [3]: > 60 µM (not active)
- CC50 [4]: > 40 µM (active)

Structure (SMILES): O=C(Oc1cccc(F)c1)c1sc2ccccc2c1Cl
- IC50 (NADPH oxidase 1): > 17 µM (not active)

Structure (SMILES): Cc1ccc(-c2nnc(-c3ccc(NC(=O)c4ccco4)cc3)o2)cc1
- EC50 [5]: 28.4 µM (active)
- EC50 [6]: 46.1 µM (active)
- EC50 (Estrogen receptor): 10.4 µM (active)

Structure (SMILES): O=C1NC(=O)N(c2ccccc2F)C(=O)/C1=C/c1ccc(Sc2nc3ccccc3[nH]2)o1
- IC50 (Large T antigen): 19.5 µM (active)
- IC50 [7]: 219 µM (active)
- IC50 (Nonstructural protein 1): > 100 µM (active)
- AC50 (Protein S100-A4): 1.28 µM (active)

Structure (SMILES): COc1ccccc1C1CC(c2c(O)nc3ccc(Cl)cc3c2-c2ccccc2)=NN1S(C)(=O)=O (centres undefined)
- CC50 (Vero): 16 µM (active)
- IC50 [8]: > 100 µM (active)
- CC50 [9]: 25.2 µM (active)
- AC50 (Cytochrome P450 2D6): 7.08 µM (inconclusive)
- AC50 (Cytochrome P450 3A4): 39.8 µM (inconclusive)

Structure (SMILES): COc1cccc(NC(=O)c2ccccc2-c2nc(-c3ccc(Cl)cc3)no2)c1
- IC50 [10]: 9 µM (active)

Structure (SMILES): O=C(O)c1cc(S(=O)(=O)Nc2ccc3c[nH]nc3c2)ccc1O
- AC50 (Caspase-6): 11.3 µM (active)

Structure (SMILES): CCn1c(=O)cc(N2CCC3(CC2)OCCO3)[nH]c1=O
- IC50 [11]: > 100 µM (active)
